# Experimental data reported in US20180036433A1, “COMPOUNDS FOR THE DIAGNOSIS OR TREATMENT OF DISORDERS ASSOCIATED WITH PROTEIN OR PEPTIDE OLIGOMERS” (Agency for Science, Technology and Research, priority 2014, published 2018).
# Legend:
# [1] = biological target: Aβ1-40 on-fibril pathway oligomers (Homo sapiens, UniProt P05067); experiment: Time-dependent Aβ fibril formation monitored by dye fluorescence; format: binding; conditions: dye 5 μM, Aβ 20 μM, 37° C.
# [2] = biological target: monomers, oligomers and fibrils of Aβ (synthetic Aβ1-40) (Homo sapiens, UniProt P05067); experiment: Fluorescence response to pre-formed Aβ monomers, oligomers and fibrils; format: binding; conditions: dye 5 μM, Aβ 20 μM
# monomers, oligomers and fibrils of Aβ (synthetic Aβ1-40), sequence (P05067 672-711): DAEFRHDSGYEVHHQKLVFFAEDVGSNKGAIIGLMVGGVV
# Aβ1-40 on-fibril pathway oligomers, sequence (P05067 672-711): as above
compound,measurement,setting,value
"Cc1ccc2c(c1)sc(-c1ccc(N(C)C)cc1)[n+]2C.[Cl-] [ThT, Thioflavin T]",fluorescence over the time course of Aβ fibril formation,[1],reached a maximum fluorescence after about 1-day and plateaus
same,"fluorescence response to Aβ monomers, oligomers and fibrils",[2],"fluorescence response in the increasing order of freshly prepared Aβ monomers, followed by oligomer and fibrils"
